From patent US20040191344A1, “Pharmaceutical composition for prophylaxis or treatment of osteoporosis, and method to prepare the same” (priority 2003, published 2004)

Test system: rats with ovariectomy-induced osteoporosis
Experiment: Ovariectomy-induced osteoporosis model
Format: in vivo, rats (strain Sprague-Dawley)
Conditions: 3 months
Experimental: In order to determine the efficacy against osteoporosis in rats (strain Sprague-Dawley), two animal test models were constructed to illustrate the outcomes against normal osteoporosis or estrogen-deficiency-induced osteoporosis, respectively.
In the animal test models, retinoic acid-induced osteoporosis model was used as normal osteoporosis model and ovariectomy-induced model was used as the model for osteoporosis induced by estrogen deficiency.
The following experiment was conducted to test the effects of the pharmaceutical composition of the present invention on rats with ovariectomy-induced osteoporosis in terms of bone mineral contents, bone mineral density, biomechanical index and bone histomorphometry as well as illustrate the claimed efficacy of the pharmaceutical composition.
The ovariectomized animal model was constructed as follows. Anesthesia of the rats was conducted by intra-abdominal injection of 20% urethane according to the dosage of 1 g/kg. The rats were then placed face down, incised in both sides of the spinal cord under aseptic condition, and their ovaries were removed to attain an osteoporosis animal model. For Normal Group, a piece of fat was removed on both sides of back spinal cord. After five days, 72 animals were chosen from the living rats and randomly divided into 9 groups of 8 animals. Administrations were given according to the following conditions:
Normal Group (pseudo-operation): CMC-Na solution 10 ml/kg/d
Affected Group: CMC-Na solution 10 ml/kg/d
Positive Group (Nylestriol): batch no. 020701, provided by Shianghai Hualian Pharmaceuticals, 1 mg/kg, once a week
Subgroup I—Extract of Semen Cuscutae and Fructus Cindii/Composite Groups
(Medium Dosage): 200 mg/kg
Subgroup II—Sole Extract of Semen Cuscutae (Unitary Group)
Subgroup III—Low Dosage Plus Calcium-containing Substance 100 mg/kg, 200 mg/kg in Total
Subgroup IV—Unitary Group Plus Calcium-containing Substance in a Ratio of 70/30, 200 mg/kg in Total
The animals were continuously administered for 3 months. The effects of the pharmaceutical composition of the present invention on morphological alteration of the femur of rats were analyzed using a Dual Energy X-Ray Absorptiometry (DEXA) two days before end of the experiment under the anesthesia of ether. The femur and tibia bone were peeled and measured. Those pieces were soaked in 4% glutaraldehyde (0.1M, pH 7.3) for more than 24 hours. Later on, the vector side of the femur was hacksawed with dental diamond saw blades (grindstone). One piece from each animal was removed and cleaned in 10% sodium hypochlorite solvent for 6 hours, followed by ultra sound wash for 15 minutes.
It was then dehydrated by ethanol-gradient, soaked in ethyl ether, air dried, and then treated with ion sputtering coating (IB-3). The BMD was assessed by dual-energy X-ray absorptiometry (DEXA), and the SX-40 X-ray bone densitometer on 20,000 volt. The graphs were taken by CMIAS-98A image analyzer.
The bones were dried at […] in the oven and then weighed to get the dry weight. The dry bones were carbonated and then incinerated in 800° C. muffle furnace for 6 hours. The ashes were weighed and then dissolved in 6N HCl, in order to measure the Ca and P levels.

C#C[C@]1(O)[C@H](O)C[C@H]2[C@@H]3CCc4cc(OC5CCCC5)ccc4[C@H]3CC[C@@]21C [Nylestriol]
Ash Mass Index (1 mg/kg once a week): 0.649 ± 0.024 g/g
EI (1 mg/kg once a week): 28.55 ± 7.03 KN · mm^2
K (spring strength) (1 mg/kg once a week): 248.91 ± 53.04 N/mm
Pb (maximum strength) (1 mg/kg once a week): 97 ± 9.4 N
δb (maximum torsion index) (1 mg/kg once a week): 0.54 ± 0.17 mm
σb (tensile strength) (1 mg/kg once a week): 147.79 ± 13.95 MPa
BMD level, Femur (DEXA, femoral head, 1 mg/kg/w): 0.353 ± 0.030 g/cm^2
BMD level, Lumbar vertebra (DEXA, 1 mg/kg/w): 0.263 ± 0.015 g/cm^2
Ca level (bone ash, 1 mg/kg once a week): 0.254 ± 0.029 g/g
P level (bone ash, 1 mg/kg once a week): 0.130 ± 0.014 g/g
Average Trabecular Width (femur, 1 mg/kg/w): 146.89 ± 22.27 μm
Percentage of Trabecular Area (femur, 1 mg/kg/w): 0.9148 ± 0.0371
